# In US6914045B2, “Glycopeptide antibiotics” (Wyeth Holdings Corporation, priority 2001, dated 2005):
# How the values were obtained:
# Experiment in all cases: in vitro antibacterial evaluation, MIC by broth dilution
# Type in all cases: cell-based
# Streptococcus sp. = conditions: broth dilution, 18 hours at 35° C.
# Outline: (§1)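 MIC, the lowest antibiotic concentration preventing growth, was read across 64-0.06 μg/mL with 5×10^5 CFU/mL inoculum. Method followed NCCLS M7-A2 broth dilution using Mueller-Hinton II; Gram-positive strains covered recent methicillin-, penicillin- and/or vancomycin-resistant clinical isolates.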
# Staphylococcus sp. = conditions: broth dilution, 18 hours at 35° C.
# Outline: as §1
# Enterococcus sp. = conditions: broth dilution, 18 hours at 35° C.
# Outline: as §1
# Escherichia coli = conditions: 18 hours at 35° C.
# [1] = inoculum 5×10^5 CFU/mL, strain ATCC 6301
# [2] = inoculum 5×10^5 CFU/mL, strain GC 1894
# [3] = inoculum 5×10^5 CFU/mL, strain GC 4563
# [4] = inoculum 5×10^5 CFU/mL, strain GC 4564
# [5] = inoculum 5×10^5 CFU/mL, strain GC 4565
# [6] = inoculum 5×10^5 CFU/mL, strain GC 2242
# [7] = inoculum 5×10^5 CFU/mL, strain GC 2691
# [8] = inoculum 5×10^5 CFU/mL, strain GC 3059
smiles,measurement,setting,value
CC(c1ccccc1)C1NC(=O)CNC(=O)C(CO)NC(=O)C(C(O)C2CNC(=N)N2C2OC(CO)C(O)C(O)C2O)NC(=O)C(C(O)C2CNC(=N)N2)NC(=O)C(Cc2ccc(OC3OC(CO)C(OC4OC(CO)C(OCC=Cc5ccc(N(C)C)cc5)C(O)C4O)C(O)C3O)cc2)NC1=O (centres unmarked) [Example 243a],MIC Streptococcus agalactiae (GC 4564),Streptococcus sp.,16 µg/mL
same,MIC Streptococcus pneumoniae (ATCC 6301),Streptococcus sp.,16 µg/mL
same,MIC Streptococcus pneumoniae (GC 1894),Streptococcus sp.,1 µg/mL
same,MIC Streptococcus pneumoniae (GC 4565),Streptococcus sp.,2 µg/mL
same,MIC Streptococcus pyogenes (GC 4563),Streptococcus sp.,8 µg/mL
same,MIC Streptococcus pneumoniae (ATCC 6301),Streptococcus sp.; [1],16 µg/mL
same,MIC Streptococcus pneumoniae (GC 1894),Streptococcus sp.; [2],1 µg/mL
same,MIC Streptococcus pyogenes (GC 4563),Streptococcus sp.; [3],8 µg/mL
same,MIC Streptococcus agalactiae (GC 4564),Streptococcus sp.; [4],16 µg/mL
same,MIC Streptococcus pneumoniae (GC 4565),Streptococcus sp.; [5],2 µg/mL
same,MIC Coagulase Negative Staphylococcus (GC 4547),Staphylococcus sp.,32 µg/mL
same,MIC Coagulase Negative Staphylococcus (GC 4548),Staphylococcus sp.,32 µg/mL
same,MIC Coagulase Negative Staphylococcus (GC 4549),Staphylococcus sp.,16 µg/mL
same,MIC Coagulase Negative Staphylococcus (GC 4551),Staphylococcus sp.,32 µg/mL
same,MIC Coagulase Negative Staphylococcus (GC 6257),Staphylococcus sp.,16 µg/mL
same,MIC Staphylococcus aureus (ATCC 29213),Staphylococcus sp.,32 µg/mL
same,MIC Staphylococcus aureus (GC 1131),Staphylococcus sp.,32 µg/mL
same,MIC Staphylococcus aureus (GC 3051),Staphylococcus sp.,32 µg/mL
same,MIC Staphylococcus aureus (GC 3053),Staphylococcus sp.,32 µg/mL
same,MIC Staphylococcus aureus (GC 4541),Staphylococcus sp.,32 µg/mL
same,MIC Staphylococcus aureus (GC 4542),Staphylococcus sp.,32 µg/mL
same,MIC Staphylococcus aureus (GC 4544),Staphylococcus sp.,32 µg/mL
same,MIC Staphylococcus aureus (GC 4545),Staphylococcus sp.,32 µg/mL
same,MIC Staphylococcus aureus-SMITH (GC 4543),Staphylococcus sp.,32 µg/mL
same,MIC Staphylococcus haemolyticus (GC 4546),Staphylococcus sp.,32 µg/mL
same,MIC Staphylococcus aureus (ATCC 29213),Staphylococcus sp.; strain ATCC 29213,32 µg/mL
same,MIC Staphylococcus aureus (GC 1131),Staphylococcus sp.; strain GC 1131,32 µg/mL
same,MIC Staphylococcus aureus (GC 3051),Staphylococcus sp.; strain GC 3051,32 µg/mL
same,MIC Staphylococcus aureus (GC 3053),Staphylococcus sp.; strain GC 3053,32 µg/mL
same,MIC Staphylococcus aureus (GC 4541),Staphylococcus sp.; strain GC 4541,32 µg/mL
same,MIC Staphylococcus aureus (GC 4542),Staphylococcus sp.; strain GC 4542,32 µg/mL
same,MIC Staphylococcus aureus-SMITH (GC 4543),Staphylococcus sp.; strain GC 4543,32 µg/mL
same,MIC Staphylococcus aureus (GC 4544),Staphylococcus sp.; strain GC 4544,32 µg/mL
same,MIC Staphylococcus aureus (GC 4545),Staphylococcus sp.; strain GC 4545,32 µg/mL
same,MIC Staphylococcus haemolyticus (GC 4546),Staphylococcus sp.; strain GC 4546,32 µg/mL
same,MIC Coagulase Negative Staphylococcus (GC 4547),Staphylococcus sp.; strain GC 4547,32 µg/mL
same,MIC Coagulase Negative Staphylococcus (GC 4548),Staphylococcus sp.; strain GC 4548,32 µg/mL
same,MIC Coagulase Negative Staphylococcus (GC 4549),Staphylococcus sp.; strain GC 4549,16 µg/mL
same,MIC Coagulase Negative Staphylococcus (GC 4551),Staphylococcus sp.; strain GC 4551,32 µg/mL
same,MIC Coagulase Negative Staphylococcus (GC 6257),Staphylococcus sp.; strain GC 6257,16 µg/mL
same,MIC Enterococcus avium (GC 4558),Enterococcus sp.,16 µg/mL
same,MIC Enterococcus faecalis (ATCC 29212),Enterococcus sp.,32 µg/mL
same,MIC Enterococcus faecalis (GC 2242),Enterococcus sp.,32 µg/mL
same,MIC Enterococcus faecalis (GC 2691),Enterococcus sp.,32 µg/mL
same,MIC Enterococcus faecalis (GC 3059),Enterococcus sp.,32 µg/mL
same,MIC Enterococcus faecalis (GC 4552),Enterococcus sp.,32 µg/mL
same,MIC Enterococcus faecalis (GC 4553),Enterococcus sp.,32 µg/mL
same,MIC Enterococcus faecalis (GC 4554),Enterococcus sp.,32 µg/mL
same,MIC Enterococcus faecalis (GC 6189),Enterococcus sp.,32 µg/mL
same,MIC Enterococcus faecium (GC 2243),Enterococcus sp.,32 µg/mL
same,MIC Enterococcus faecium (GC 4556),Enterococcus sp.,32 µg/mL
same,MIC Enterococcus faecium (GC 4557),Enterococcus sp.,16 µg/mL
same,MIC Enterococcus faecalis (ATCC 29212),Enterococcus sp.; strain ATCC 29212,32 µg/mL
same,MIC Enterococcus faecium (GC 2243),Enterococcus sp.; strain GC 2243,32 µg/mL
same,MIC Enterococcus faecalis (GC 4552),Enterococcus sp.; strain GC 4552,32 µg/mL
same,MIC Enterococcus faecalis (GC 4553),Enterococcus sp.; strain GC 4553,32 µg/mL
same,MIC Enterococcus faecalis (GC 4554),Enterococcus sp.; strain GC 4554,32 µg/mL
same,MIC Enterococcus faecium (GC 4556),Enterococcus sp.; strain GC 4556,32 µg/mL
same,MIC Enterococcus faecium (GC 4557),Enterococcus sp.; strain GC 4557,16 µg/mL
same,MIC Enterococcus avium (GC 4558),Enterococcus sp.; strain GC 4558,16 µg/mL
same,MIC Enterococcus faecalis (GC 6189),Enterococcus sp.; strain GC 6189,32 µg/mL
same,MIC Enterococcus faecalis (GC 2242),Enterococcus sp.; [6],32 µg/mL
same,MIC Enterococcus faecalis (GC 2691),Enterococcus sp.; [7],32 µg/mL
same,MIC Enterococcus faecalis (GC 3059),Enterococcus sp.; [8],32 µg/mL
same,MIC Escherichia coli (ATCC 25922),Escherichia coli,>64 µg/mL
same,MIC Escherichia coli (GC 4559),Escherichia coli,>64 µg/mL
same,MIC Escherichia coli (GC 4560),Escherichia coli,32 µg/mL
COc1ccc(COCC2OC(OC3C(CO)OC(Oc4ccc(CC5NC(=O)C(C(C)c6ccccc6)NC(=O)CNC(=O)C(CO)NC(=O)C(C(O)C6CNC(=N)N6C6OC(CO)C(O)C(O)C6O)NC(=O)C(C(O)C6CNC(=N)N6)NC5=O)cc4)C(O)C3O)C(O)C(O)C2O)cc1 (centres unmarked) [Example 232],MIC Streptococcus agalactiae (GC 4564),Streptococcus sp.,2 µg/mL
same,MIC Streptococcus pneumoniae (ATCC 6301),Streptococcus sp.,0.5 µg/mL
same,MIC Streptococcus pneumoniae (GC 1894),Streptococcus sp.,0.5 µg/mL
same,MIC Streptococcus pneumoniae (GC 4565),Streptococcus sp.,1 µg/mL
same,MIC Streptococcus pyogenes (GC 4563),Streptococcus sp.,2 µg/mL
same,MIC Streptococcus pneumoniae (ATCC 6301),Streptococcus sp.; [1],0.5 µg/mL
same,MIC Streptococcus pneumoniae (GC 1894),Streptococcus sp.; [2],0.5 µg/mL
same,MIC Streptococcus pyogenes (GC 4563),Streptococcus sp.; [3],2 µg/mL
same,MIC Streptococcus agalactiae (GC 4564),Streptococcus sp.; [4],2 µg/mL
same,MIC Streptococcus pneumoniae (GC 4565),Streptococcus sp.; [5],1 µg/mL
same,MIC Coagulase Negative Staphylococcus (GC 4547),Staphylococcus sp.,2 µg/mL
same,MIC Coagulase Negative Staphylococcus (GC 4548),Staphylococcus sp.,2 µg/mL
same,MIC Coagulase Negative Staphylococcus (GC 4549),Staphylococcus sp.,1 µg/mL
same,MIC Coagulase Negative Staphylococcus (GC 4551),Staphylococcus sp.,4 µg/mL
same,MIC Coagulase Negative Staphylococcus (GC 6257),Staphylococcus sp.,2 µg/mL
same,MIC Staphylococcus aureus (ATCC 29213),Staphylococcus sp.,4 µg/mL
same,MIC Staphylococcus aureus (GC 1131),Staphylococcus sp.,4 µg/mL
same,MIC Staphylococcus aureus (GC 3051),Staphylococcus sp.,4 µg/mL
same,MIC Staphylococcus aureus (GC 3053),Staphylococcus sp.,8 µg/mL
same,MIC Staphylococcus aureus (GC 4541),Staphylococcus sp.,4 µg/mL
same,MIC Staphylococcus aureus (GC 4542),Staphylococcus sp.,4 µg/mL
same,MIC Staphylococcus aureus (GC 4544),Staphylococcus sp.,4 µg/mL
same,MIC Staphylococcus aureus (GC 4545),Staphylococcus sp.,4 µg/mL
same,MIC Staphylococcus aureus-SMITH (GC 4543),Staphylococcus sp.,4 µg/mL
same,MIC Staphylococcus haemolyticus (GC 4546),Staphylococcus sp.,2 µg/mL
same,MIC Staphylococcus aureus (ATCC 29213),Staphylococcus sp.; strain ATCC 29213,4 µg/mL
same,MIC Staphylococcus aureus (GC 1131),Staphylococcus sp.; strain GC 1131,4 µg/mL
same,MIC Staphylococcus aureus (GC 3051),Staphylococcus sp.; strain GC 3051,4 µg/mL
same,MIC Staphylococcus aureus (GC 3053),Staphylococcus sp.; strain GC 3053,8 µg/mL
same,MIC Staphylococcus aureus (GC 4541),Staphylococcus sp.; strain GC 4541,4 µg/mL
same,MIC Staphylococcus aureus (GC 4542),Staphylococcus sp.; strain GC 4542,4 µg/mL
same,MIC Staphylococcus aureus-SMITH (GC 4543),Staphylococcus sp.; strain GC 4543,4 µg/mL
same,MIC Staphylococcus aureus (GC 4544),Staphylococcus sp.; strain GC 4544,4 µg/mL
same,MIC Staphylococcus aureus (GC 4545),Staphylococcus sp.; strain GC 4545,4 µg/mL
same,MIC Staphylococcus haemolyticus (GC 4546),Staphylococcus sp.; strain GC 4546,2 µg/mL
same,MIC Coagulase Negative Staphylococcus (GC 4547),Staphylococcus sp.; strain GC 4547,2 µg/mL
same,MIC Coagulase Negative Staphylococcus (GC 4548),Staphylococcus sp.; strain GC 4548,2 µg/mL
same,MIC Coagulase Negative Staphylococcus (GC 4549),Staphylococcus sp.; strain GC 4549,1 µg/mL
same,MIC Coagulase Negative Staphylococcus (GC 4551),Staphylococcus sp.; strain GC 4551,4 µg/mL
same,MIC Coagulase Negative Staphylococcus (GC 6257),Staphylococcus sp.; strain GC 6257,2 µg/mL
same,MIC Enterococcus avium (GC 4558),Enterococcus sp.,32 µg/mL
same,MIC Enterococcus faecalis (ATCC 29212),Enterococcus sp.,32 µg/mL
same,MIC Enterococcus faecalis (GC 2242),Enterococcus sp.,16 µg/mL
same,MIC Enterococcus faecalis (GC 2691),Enterococcus sp.,32 µg/mL
same,MIC Enterococcus faecalis (GC 3059),Enterococcus sp.,32 µg/mL
same,MIC Enterococcus faecalis (GC 4552),Enterococcus sp.,32 µg/mL
same,MIC Enterococcus faecalis (GC 4553),Enterococcus sp.,32 µg/mL
same,MIC Enterococcus faecalis (GC 4554),Enterococcus sp.,32 µg/mL
same,MIC Enterococcus faecalis (GC 6189),Enterococcus sp.,64 µg/mL
same,MIC Enterococcus faecium (GC 2243),Enterococcus sp.,16 µg/mL
same,MIC Enterococcus faecium (GC 4556),Enterococcus sp.,32 µg/mL
same,MIC Enterococcus faecium (GC 4557),Enterococcus sp.,4 µg/mL
same,MIC Enterococcus faecalis (ATCC 29212),"Enterococcus sp.; inoculum 5×10^5 CFU/mL, strain ATCC 29212",32 µg/mL
same,MIC Enterococcus faecalis (GC 2242),Enterococcus sp.; [6],16 µg/mL
same,MIC Enterococcus faecium (GC 2243),"Enterococcus sp.; inoculum 5×10^5 CFU/mL, strain GC 2243",16 µg/mL
same,MIC Enterococcus faecalis (GC 2691),Enterococcus sp.; [7],32 µg/mL
same,MIC Enterococcus faecalis (GC 3059),Enterococcus sp.; [8],32 µg/mL
same,MIC Enterococcus faecalis (GC 4552),"Enterococcus sp.; inoculum 5×10^5 CFU/mL, strain GC 4552",32 µg/mL
same,MIC Enterococcus faecalis (GC 4553),"Enterococcus sp.; inoculum 5×10^5 CFU/mL, strain GC 4553",32 µg/mL
same,MIC Enterococcus faecalis (GC 4554),"Enterococcus sp.; inoculum 5×10^5 CFU/mL, strain GC 4554",32 µg/mL
same,MIC Enterococcus faecium (GC 4556),"Enterococcus sp.; inoculum 5×10^5 CFU/mL, strain GC 4556",32 µg/mL
same,MIC Enterococcus faecium (GC 4557),"Enterococcus sp.; inoculum 5×10^5 CFU/mL, strain GC 4557",4 µg/mL
same,MIC Enterococcus avium (GC 4558),"Enterococcus sp.; inoculum 5×10^5 CFU/mL, strain GC 4558",32 µg/mL
same,MIC Enterococcus faecalis (GC 6189),"Enterococcus sp.; inoculum 5×10^5 CFU/mL, strain GC 6189",64 µg/mL
same,MIC Escherichia coli (ATCC 25922),Escherichia coli,>64 µg/mL
same,MIC Escherichia coli (GC 4559),Escherichia coli,64 µg/mL
same,MIC Escherichia coli (GC 4560),Escherichia coli,2 µg/mL
